The source made the active and inactive calls. No cut-off for these calls is given here.
Assays:
Liver [1] = test: Increase in oxygen consumption rate of mitochondrial state 4 respiration in ICR mouse liver fraction at 20 uM by Clark-type oxygen electrode assay; format: functional
Liver [2] = test: Toxicity in ICR mouse liver fraction assessed as ROS production at 1 to 20 uM by Clark-type oxygen electrode assay; format: tissue-based
Liver [3] = test: Increase in oxygen consumption rate of mitochondrial state 3 respiration in ICR mouse liver fraction at 20 uM by Clark-type oxygen electrode assay; format: functional
Mus musculus [4] = test: Toxicity in ICR mouse assessed as lesions in kidney at 0.4 to 0.8 mg/kg/week, ip for 6 weeks measured after 6 weeks relative to control; format: organism-based; design: route intraperitoneal; settings: in vivo, 1008 h
Liver [5] = test: Increase in oxygen consumption rate of mitochondrial state 4 respiration in ICR mouse liver fraction at 10 uM by Clark-type oxygen electrode assay; format: functional
Mus musculus [6] = test: Antiobesity activity in ICR mouse assessed as body weight reduction at 0.4 to 0.8 mg/kg/week, ip for 6 weeks measured after 6 weeks relative to control; format: functional; design: scale not given: the % may be the effect or the level left; settings: route intraperitoneal
Mus musculus [7] = test: Toxicity in ICR mouse assessed as lesions in liver at 0.4 to 0.8 mg/kg/week, ip for 6 weeks measured after 6 weeks relative to control; format: organism-based; design: route intraperitoneal; settings: in vivo, 1008 h

Compound	Activity (Liver [1])	further results
COc1cc(C(=O)NCC=C(C)C)nc2c(OCC=C(C)C)cccc12	inactive	
COc1cc(C(=O)OC2CCCC2)nc2c(OCC=C(C)C)cccc12	inactive	
COc1cc(C(=O)OCC=C(C)C)nc2c(OC)cccc12	inactive	
COC(=O)c1cc(OC)c2cccc(OCC=C(C)C)c2n1	inactive	
COc1cc(C(=O)OC/C=C(\C)CCC=C(C)C)nc2c(OCC=C(C)C)cccc12	inactive	
COc1cc(C(=O)OCC=C(C)C)nc2c(OCCC(C)C)cccc12	inactive	
COc1cc(C(=O)OCC=C(C)C)nc2c(OC/C=C(\C)CCC=C(C)C)cccc12	inactive	
COc1cc(C(=O)OCC=C(C)C)nc2c(OCC=C(C)C)cccc12	Active	Activity (Liver [2]): Non-toxic; Activity (Liver [3]): inactive
COc1cc(C(=O)OCC=C(C)C)nc2c(OC3CCCC3)cccc12	inactive	
CCCCCOc1cc(C(=O)OCC=C(C)C)nc2c(OCC=C(C)C)cccc12	Active	
CC(C)=CCOC(=O)c1cc(OCC=C(C)C)c2cccc(OCC=C(C)C)c2n1	Active	Activity (Liver [2]): Non-toxic; Activity (Mus musculus [4]): Non-toxic; Activity (Liver [5]): Active; Activity (Liver [3]): inactive; Activity (Mus musculus [6]): 6%; Activity (Mus musculus [7]): Non-toxic
COc1cc(C(=O)OCCC(C)C)nc2c(OCC=C(C)C)cccc12	inactive	

— ChEMBL document CHEMBL3351581, “Synthesis of prenylated quinolinecarboxylic acid derivatives and their anti-obesity activities” (Bioorg Med Chem, 2015)
